# Laboratory results: ChEMBL document CHEMBL5608188, “Discovery of N'-benzyl-3-chloro-N-((1S,3R,4R)-3-((dimethylamino)methyl)-4-hydroxy-4-(3-methoxyphenyl)cyclohexyl)benzenesulfonamide as a novel selective KOR ligand” (Eur J Med Chem, 2024)
# Calls of active or inactive are those of the source. No cut-off for these calls is given here.
# Experiments:
# [1] = biological target: T1, Kappa-type opioid receptor (Homo sapiens, UniProt P41145); assay: Binding affinity to human kappa-opioid receptor extracted from CHO cell membrane assessed as inhibition constant incubated for 60 mins in presence of [3H]U69593 by radioligand binding assay; assay type: cell membranes
# T1 sequence (P41145 whole entry): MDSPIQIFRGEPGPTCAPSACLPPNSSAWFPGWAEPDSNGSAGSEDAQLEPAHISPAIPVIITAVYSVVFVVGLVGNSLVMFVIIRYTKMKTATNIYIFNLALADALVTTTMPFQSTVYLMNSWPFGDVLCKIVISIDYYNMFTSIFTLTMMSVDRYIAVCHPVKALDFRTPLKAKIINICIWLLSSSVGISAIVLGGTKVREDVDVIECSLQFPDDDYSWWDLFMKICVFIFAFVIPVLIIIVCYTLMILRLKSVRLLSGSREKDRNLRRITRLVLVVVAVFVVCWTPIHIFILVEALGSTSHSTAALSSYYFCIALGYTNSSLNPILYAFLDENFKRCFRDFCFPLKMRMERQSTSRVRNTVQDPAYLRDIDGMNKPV
# [2] = biological target: T1, Kappa-type opioid receptor; assay: Displacement of [3H] U69593 from human kappa-opioid receptor extracted from CHO cell membrane at 0.1 uM by liquid scintillation counting analysis relative to control; assay type: cell membranes
# [3] = biological target: Delta-type opioid receptor (Rattus norvegicus) (UniProt P33533); assay: Displacement of [3H] DPDPE from rat delta-opioid receptor extracted from CHO cell membrane at 0.1 uM by liquid scintillation counting analysis relative to control; assay type: cell membranes
# Chain of Delta-type opioid receptor (Rattus norvegicus) (P33533 whole entry): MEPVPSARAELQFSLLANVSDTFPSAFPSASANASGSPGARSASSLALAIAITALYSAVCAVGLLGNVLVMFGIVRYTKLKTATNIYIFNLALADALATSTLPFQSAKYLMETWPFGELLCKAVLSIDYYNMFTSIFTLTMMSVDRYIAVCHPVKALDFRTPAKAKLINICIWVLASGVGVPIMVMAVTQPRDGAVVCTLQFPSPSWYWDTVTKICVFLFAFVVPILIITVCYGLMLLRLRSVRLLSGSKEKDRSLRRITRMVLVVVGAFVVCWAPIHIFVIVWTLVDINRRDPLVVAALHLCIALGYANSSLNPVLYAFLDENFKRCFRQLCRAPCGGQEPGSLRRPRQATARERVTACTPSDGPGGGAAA
# [4] = biological target: Mu-type opioid receptor (Rattus norvegicus) (UniProt P33535); assay: Displacement of [3H] DAMGO from rat mu-opioid receptor extracted from CHO cell membrane at 0.1 uM by liquid scintillation counting analysis relative to control; assay type: cell membranes
# Chain of Mu-type opioid receptor (Rattus norvegicus) (P33535 whole entry): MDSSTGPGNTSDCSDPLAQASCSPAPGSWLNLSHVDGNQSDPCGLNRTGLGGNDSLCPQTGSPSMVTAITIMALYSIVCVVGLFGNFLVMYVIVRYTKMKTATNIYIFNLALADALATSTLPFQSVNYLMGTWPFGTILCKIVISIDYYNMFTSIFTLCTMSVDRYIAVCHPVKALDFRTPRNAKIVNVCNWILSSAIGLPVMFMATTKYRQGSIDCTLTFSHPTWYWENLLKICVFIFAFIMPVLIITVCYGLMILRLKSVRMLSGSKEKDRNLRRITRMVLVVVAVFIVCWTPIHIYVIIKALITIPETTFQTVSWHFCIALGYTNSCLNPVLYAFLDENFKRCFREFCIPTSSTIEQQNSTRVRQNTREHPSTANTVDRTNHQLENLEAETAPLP
# Mu-type opioid receptor = Mu-type opioid receptor (Rattus norvegicus, UniProt P33535); assay: (§1) Displacement of [3H] DAMGO from rat mu-opioid receptor extracted from CHO cell membrane assessed as inhibition constant by liquid scintillation counting analysis; assay type: cell membranes
# Chain of Mu-type opioid receptor (P33535 whole entry): as above
# [5] = biological target: Delta-type opioid receptor (Rattus norvegicus, UniProt P33533); assay: (§2) Displacement of [3H] DPDPE from rat delta-opioid receptor extracted from CHO cell membrane assessed as inhibition constant by liquid scintillation counting analysis; assay type: cell membranes
# Chain of Delta-type opioid receptor (P33533 whole entry): as the sequence (P33533 whole entry) above
# [6] = biological target: T1, Kappa-type opioid receptor; assay: Displacement of [3H] U69593 from human kappa-opioid receptor extracted from CHO cell membrane assessed as inhibition constant by liquid scintillation counting analysis; assay type: cell membranes
# [7] = Drug uptake in mouse plasma; assay type: ADME, cell-free
# [8] = Metabolic stability in mouse liver assessed as intrinsic clearance at 1 uM measured upto 60 mins in presence of NADPH by LC-MS/MS analysis; assay type: ADME, tissue-based; conditions: read-out: CLH
# [9] = Metabolic stability in mouse liver microsomes assessed as intrinsic clearance at 1 uM measured upto 60 mins in presence of NADPH by LC-MS/MS analysis; assay type: ADME, Microsome; conditions: read-out: CLH
# [10] = Metabolic stability in mouse liver microsomes assessed as half life at 1 uM measured upto 60 mins in presence of NADPH by LC-MS/MS analysis; assay type: ADME, Microsome
# [11] = Tmax in ICR mouse at 5 mg/kg, po measured after 24 hrs; assay type: ADME, organism-based; conditions: in vivo
# [12] = AUC (0 to t) in ICR mouse at 2 mg/kg, iv measured after 24 hrs; assay type: ADME, organism-based; conditions: in vivo
# [13] = Metabolic stability in mouse liver microsomes assessed as parent compound remaining at 1 uM measured after 60 min in presence of NADPH by LC-MS/MS analysis; assay type: ADME, Microsome; conditions: read-out: Stability
# [14] = Metabolic stability in mouse liver microsomes assessed as parent compound remaining at 1 uM measured after 15 min in presence of NADPH by LC-MS/MS analysis; assay type: ADME, Microsome; conditions: read-out: Stability
# [15] = biological target: Delta-type opioid receptor (Rattus norvegicus) (UniProt P33533); assay: as §2; assay type: cell membranes
# [16] = Metabolic stability in mouse liver microsomes assessed as parent compound remaining at 1 uM measured after 5 min in presence of NADPH by LC-MS/MS analysis; assay type: ADME, Microsome; conditions: read-out: Stability
# [17] = Clearance in ICR mouse at 2 mg/kg, iv measured after 24 hrs; assay type: ADME, organism-based; conditions: in vivo
# Mus musculus [18] = assay: Antinociceptive activity in acetic acid induced female Kunming mouse model assessed as reduction in number of torsions preadministered for 30 mins followed by acetic acid administration and measured after 15 mins by abdominal contraction test; assay type: functional; conditions: 0.75 h, time 45 min
# [19] = Tmax in ICR mouse at 2 mg/kg, iv measured after 24 hrs; assay type: ADME, organism-based; conditions: in vivo
# [20] = Oral bioavailability in ICR mouse at 5 mg/kg measured after 24 hrs; assay type: ADME, organism-based; conditions: in vivo
# [21] = Metabolic stability in mouse liver microsomes assessed as parent compound remaining at 1 uM measured after 30 min in presence of NADPH by LC-MS/MS analysis; assay type: ADME, Microsome; conditions: read-out: Stability
# [22] = AUC (0 to infinity) in ICR mouse at 5 mg/kg, po measured after 24 hrs; assay type: ADME, organism-based; conditions: in vivo
# [23] = Cmax in ICR mouse at 5 mg/kg, po measured after 24 hrs; assay type: ADME, organism-based; conditions: in vivo
# [24] = AUC (0 to t) in ICR mouse at 5 mg/kg, po measured after 24 hrs; assay type: ADME, organism-based; conditions: in vivo
# [25] = Half-life in ICR mouse at 2 mg/kg, iv measured after 24 hrs; assay type: ADME, organism-based; conditions: in vivo
# [26] = Cmax in ICR mouse at 2 mg/kg, iv measured after 24 hrs; assay type: ADME, organism-based; conditions: in vivo
# [27] = Toxicity in male Kunming mouse assessed as effect on sedation at 1.3 to 10 mg/kg, IP administered for 30 mins and measured after 1 hrs by open field test; assay type: organism-based; conditions: in vivo, 1.5 h, dose 1.3-10 mg/kg, time 90 min
# Mus musculus [28] = assay: Antinociceptive activity in acetic acid induced female Kunming mouse model assessed as reduction in number of torsions preadministered with nor-BNI for 24 hrs followed by compound administration for 30 mins and measured after 15 mins of acetic acid administration by abdominal contraction test; assay type: functional, organism-based; conditions: time 45.0 min
# [29] = Half-life in ICR mouse at 5 mg/kg, po measured after 24 hrs; assay type: ADME, organism-based; conditions: in vivo
# [30] = AUC (0 to infinity) in ICR mouse at 2 mg/kg, iv measured after 24 hrs; assay type: ADME, organism-based; conditions: in vivo
# [31] = biological target: Mu-type opioid receptor (Rattus norvegicus) (UniProt P33535); assay: as §1; assay type: cell membranes
smiles,measurement,setting,value
CN(C)C[C@@H]1CN(CCc2cccc(C(F)(F)F)c2)CC[C@@]1(O)c1cccc(O)c1,Ki,[1],0.0258 µM
COc1cccc(C2(O)CCC(NS(=O)(=O)c3ccccc3)CC2CN(C)C)c1 (centres undefined),inhibition,[2],7.2%
same,inhibition,[3],7.51%
same,inhibition,[4],11.8%
COc1cccc(C2(O)CCC(NS(=O)(=O)c3cccs3)CC2CN(C)C)c1 (centres undefined),inhibition,[2],15.2%
same,inhibition,[3],0%
same,inhibition,[4],1.2%
COc1cccc(C2(OC(=O)c3ccccc3)CCC(NS(=O)(=O)c3ccccc3)CC2CN(C)C)c1 (centres undefined),inhibition,[2],12.9%
same,inhibition,[3],0%
same,inhibition,[4],18.1%
COc1cccc(C2(O)CCC(N(C)S(=O)(=O)c3cccc(Cl)c3)CC2CN(C)C)c1 (centres undefined),inhibition,[2],22.7%
same,inhibition,[3],14.8%
same,inhibition,[4],16.5%
COc1cccc(C2(OC(=O)c3ccccc3)CCC(N(C)S(=O)(=O)Cc3ccccc3)CC2CN(C)C)c1 (centres undefined),inhibition,[2],28.8%
same,inhibition,[3],0%
same,inhibition,[4],3.3%
COc1cccc(C2(O)CCC(N(Cc3ccccc3)S(=O)(=O)c3cccc(Cl)c3)CC2CN(C)C)c1 (centres undefined),inhibition,[3],0%
same,inhibition,[4],6.7%
COc1cccc(C2(O)CCC(NS(=O)(=O)c3cccc(Cl)c3)CC2CN(C)C)c1 (centres undefined),inhibition,[2],15%
same,inhibition,[3],0%
same,inhibition,[4],22.8%
COc1cccc(C2(O)CCC(N(Cc3ccccc3)S(=O)(=O)c3cccs3)CC2CN(C)C)c1 (centres undefined),inhibition,[2],14.9%
same,inhibition,[3],0%
same,inhibition,[4],9.5%
CN(C)CC1CC(N(Cc2ccccc2)S(=O)(=O)c2cccc(Cl)c2)CCC1(O)c1cccc(O)c1.Cl (centres undefined),Ki,Mu-type opioid receptor,0.0188 µM
same,Ki,[5],0.201 µM
same,Ki,[6],0.0031 µM
same,Drug uptake,[7],Active
same,inhibition,[3],20.7%
O=C(O)Cc1ccccc1Nc1c(Cl)cccc1Cl [DICLOFENAC],CLint scaled at 1 µM,[8],116 mL/min/kg
same,microsomal CLint at 1 µM,[9],29.4 µL/min/mg
same,half-life at 1 µM,[10],47.1 min
COc1cccc([C@@]2(O)CC[C@H](N(Cc3ccccc3)S(=O)(=O)c3cccc(Cl)c3)C[C@@H]2CN(C)C)c1.Cl,Tmax,[11],4.98 min
same,AUC(0-t) at 24 h,[12],131 ng·h/mL
same,"remaining at 1 h, 1 µM",[13],4.59%
same,"remaining at 0.25 h, 1 µM",[14],6.7%
same,Activity,[15],inactive
same,Ki,[6],0.0019 µM
same,"remaining at 5 min, 1 µM",[16],29%
same,clearance,[17],246 mL/min/kg
same,ED50,Mus musculus [18],1.3 mg/kg
same,Tmax,[19],4.98 min
same,CLint scaled at 1 µM,[8],1390 mL/min/kg
same,bioavailability,[20],0.53%
same,Drug uptake,[7],Active
same,"remaining at 0.5 h, 1 µM",[21],5.89%
same,AUC(0-inf),[22],1.64 ng·h/mL
same,Cmax,[23],3.87 ng/mL
same,microsomal CLint at 1 µM,[9],351 µL/min/mg
same,AUC(0-t) at 24 h,[24],1.34 ng·h/mL
same,half-life,[25],71.4 min
same,Cmax,[26],221 ng/mL
same,half-life at 1 µM,[10],3.95 min
same,Activity,[27],Non-Toxic
same,inhibition,[4],25.8%
same,Activity,Mus musculus [28],inactive
same,half-life,[29],16.2 min
same,AUC(0-inf),[30],136 ng·h/mL
COc1cccc(C2(O)CCCCC2CN(C)C)c1 (centres undefined),inhibition,[2],0%
same,inhibition,[3],0%
same,inhibition,[4],6%
COc1cccc(C2(OC(=O)c3ccccc3)CCC(N(C)S(=O)(=O)Cc3cccc(Cl)c3)CC2CN(C)C)c1 (centres undefined),inhibition,[2],16.6%
same,inhibition,[3],0%
same,inhibition,[4],0%
COc1cccc(C2(OC(=O)c3ccccc3)CCC(NS(=O)(=O)c3cccc(Cl)c3)CC2CN(C)C)c1 (centres undefined),inhibition,[2],30.5%
same,inhibition,[3],0%
same,inhibition,[4],14.4%
COc1cccc(C2(O)CCC(N(C)S(=O)(=O)c3ccccc3)CC2CN(C)C)c1 (centres undefined),inhibition,[2],15.3%
same,inhibition,[3],12.9%
same,inhibition,[4],38.6%
COc1cccc([C@]2(O)CC[C@@H](N(Cc3ccccc3)S(=O)(=O)c3cccc(Cl)c3)C[C@H]2CN(C)C)c1,Activity,[31],inactive
same,Activity,[6],inactive
COc1cccc(C2(O)CCC(N(Cc3ccccc3)S(=O)(=O)c3ccccc3)CC2CN(C)C)c1 (centres undefined),inhibition,[2],39.7%
same,inhibition,[3],0%
same,inhibition,[4],14.8%
COc1cccc(C2(O)CCC(NS(=O)(=O)Cc3ccccc3)CC2CN(C)C)c1 (centres undefined),inhibition,[2],11.2%
same,inhibition,[3],1%
same,inhibition,[4],41.1%
COc1cccc(C2(O)CCC(NS(=O)(=O)Cc3cccc(Cl)c3)CC2CN(C)C)c1 (centres undefined),inhibition,[2],6.9%
same,inhibition,[3],0%
same,inhibition,[4],35.8%
COc1cccc(C2(O)CCC(N(C)S(=O)(=O)c3cccs3)CC2CN(C)C)c1 (centres undefined),inhibition,[2],22%
same,inhibition,[3],30.1%
same,inhibition,[4],0%
